Experimental data from patent US6565891B1, “Nutritional supplement for children” (Tsar Health Private Ltd., priority 2002, dated 2003).

How the values were obtained:
[1] = in vivo; cited from earlier work
blood lymphocytes = assay: Zinc dose response: lymphocyte response to PHA (stimulation index); assay type: in vivo, human; conditions: children age 4-12 years, diet zinc 5 mg, median (standard deviation)
Protocol: (§1) The basic concept underlying the assessment of the most optimum nutrient amounts for a given age group uses the principle of“dose-response curves”. At least four groups of individuals were provided with various amounts of a given nutrient and their immune responses were measured using established and accepted techniques. The amount of a nutrient that gave the best response was considered the optimum amount. Dose response curves were determined for all vitamins and trace elements considered essential for human health, particularly immunity.
Data for the dose response curve for zinc in a group of 4 to 12 year old children is shown in FIGS. 1 and 2, with the total amount of zinc taken is shown for each group. To determine the magnitude of immune response, an aliquot of blood was withdrawn from each subject in the study, blood lymphocytes were separated, washed and mixed with the mitogen phytohemagglutinin (PHA) in previously determined optimum amount. The optimum amount of PHA used in the experiments was predetermined by a set of dose response curves using lymphocytes of a healthy donor and four different concentrations of PHA. After culture in a sterile environment for 72 hours, the cells were washed and mixed with radioactive thymidine. The same steps were undertaken in a control sample in which only the culture medium was used, not PHA. The cells were washed and radioactivity determined.
(§2) The ratio of radioactivity in the test samples divided by radioactivity in control samples gave the “stimulation response” shown in FIGS. 1 and 2.

Interleukin-2 = assay: Zinc dose response: interleukin-2; assay type: in vivo, human; conditions: children age 4-12 years, median (standard deviation)
Protocol: as §1, §2

Antibody response = assay: Zinc dose response: antibody response; assay type: in vivo, human; conditions: children age 4-12 years
Protocol: as §1, §2

Thymulin activity = assay: Zinc dose response: thymulin activity; assay type: in vivo, human; conditions: children age 4-12 years
Protocol: as §1, §2

Cc1ncc(C[n+]2csc(CCO)c2C)c(N)n1 [Thiamin]
biologic half-life in the body [1]: about 15 days

[Zn] [zinc]
Lymphocyte response to PHA (stimulation index) (blood lymphocytes; 7 mg supplemental zinc): 86(11)
Lymphocyte response to PHA (stimulation index) (blood lymphocytes; 20 mg supplemental zinc): 54(9)
Lymphocyte response to PHA (stimulation index) (blood lymphocytes; 50 mg supplemental zinc): 41(8)
Interleukin-2 (Interleukin-2; 7 mg supplemental zinc): 16(2.0) units/ml
Interleukin-2 (Interleukin-2; 20 mg supplemental zinc): 11(1.5) units/ml
Interleukin-2 (Interleukin-2; 50 mg supplemental zinc): 8(1.3) units/ml
Antibody response (median reciprocal titre) (Antibody response; 7 mg supplemental zinc): 318
Antibody response (median reciprocal titre) (Antibody response; 20 mg supplemental zinc): 129
Antibody response (median reciprocal titre) (Antibody response; 50 mg supplemental zinc): 73
Thymulin activity (median reciprocal titre) (Thymulin activity; 7 mg supplemental zinc): 216
Thymulin activity (median reciprocal titre) (Thymulin activity; 20 mg supplemental zinc): 187
Thymulin activity (median reciprocal titre) (Thymulin activity; 50 mg supplemental zinc): 166
